Experiments:
human SGLT1 = biological target: T1, human SGLT1 (Homo sapiens, UniProt P13866); experiment: Cell-based assay for sodium-dependent glucose transport (14C-AMG uptake), CHOK-SGLT1; conditions: CHO-K1 cells stably expressing human SGLT1; for inhibition at 10 µM: 10 μM compound, read-out: CHOK-SGLT1 % Inh. @ 10 μM; for IC50: Na-dependent 14C-AMG uptake
T1 construct: expressed in transfected cells
T1 sequence (P13866 1-664): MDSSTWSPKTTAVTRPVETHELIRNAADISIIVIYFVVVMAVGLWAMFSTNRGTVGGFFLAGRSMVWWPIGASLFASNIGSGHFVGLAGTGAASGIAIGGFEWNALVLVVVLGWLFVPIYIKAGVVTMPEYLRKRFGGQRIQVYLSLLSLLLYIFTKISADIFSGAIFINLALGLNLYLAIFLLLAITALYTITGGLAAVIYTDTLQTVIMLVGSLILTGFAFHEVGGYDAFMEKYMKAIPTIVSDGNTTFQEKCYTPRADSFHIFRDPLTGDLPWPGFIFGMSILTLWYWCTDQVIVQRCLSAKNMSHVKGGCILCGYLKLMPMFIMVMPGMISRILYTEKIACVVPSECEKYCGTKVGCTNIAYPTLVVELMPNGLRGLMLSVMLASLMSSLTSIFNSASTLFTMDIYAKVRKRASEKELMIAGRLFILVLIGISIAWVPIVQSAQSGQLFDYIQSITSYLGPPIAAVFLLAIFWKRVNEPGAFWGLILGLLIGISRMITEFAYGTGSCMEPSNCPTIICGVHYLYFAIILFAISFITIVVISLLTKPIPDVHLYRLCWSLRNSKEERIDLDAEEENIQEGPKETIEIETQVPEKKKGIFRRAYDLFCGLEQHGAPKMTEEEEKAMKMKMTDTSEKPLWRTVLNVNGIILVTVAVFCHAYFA
Experimental: (§1) Cloning of the human SGLT1 and human SGLT2 cDNAs and construction of the mammalian expression vector: The human SGLT1 cDNA (Genbank M24847) was cloned from human small intestine. Human SGLT2 cDNA (Genbank M95549) was cloned from human kidney. Both full cDNAs were subcloned into pcDNA and sequenced to verify the integrity of the construct.
(§2) Generation of CHO-K1 cells stably expressing human SGLT1 or human SGLT2: Transfection of CHO-K1 cells was performed using DMRIE-C reagent (Life Technologies, Gaithersburg, Md.). Transfectants were then selected in the presence of the antibiotic G418 (Gibco-BRL, Grand Island, N.Y.) at 400 μg/ml. Individual clones were then characterized using the functional assay described below.
(§3) Cell-based assay for sodium-dependent glucose transport: Cell lines stably expressing human SGLT1 or SGLT2 were then used for functional analysis of Na+-dependent glucose uptake. Briefly, cells were plated at a density of 65,000 cells per well in a 96-well plate and allowed to grow for 48 hours. Cells were subsequently washed one time with Assay Buffer (50 mM HEPES pH […], 5 mM KCl, 1 mM MgCl2, 1 mM CaCl2 and 137 mM NaCl) and treated with compound in the absence or presence of NaCl for 15 minutes. Cells were then labeled with ^14C-α-methylglucopyranoside (AMG, Sigma, St. Louis, Mo.), a non-metabolizable glucose analog specific for sodium-dependent glucose transporters as previously described (Peng, H. and Lever J. E. Post-transcriptional regulation of Na^+/glucose cotransporter (SGLT1) gene expression in LLC-PK1 cells. J Biol Chem 1995; 270:20536-20542.). After 2 hours the labeled cells were washed three times with ice-cold PBS. After aspiration, cells were solubilized using Microscint 20 (Packard, Meriden, Conn.) and Na-dependent ^14C-AMG uptake was quantified by measuring radioactivity. Plates were counted in a TopCount (Packard, Meriden, Conn.). Results are reported as the % inhibition or IC50 value from a representative experiment. Variability for the functional assay was typically within 20%.

human SGLT2 = biological target: T2, human SGLT2 (Homo sapiens, UniProt P31639); experiment: Cell-based assay for sodium-dependent glucose transport (14C-AMG uptake), CHOK-SGLT2; conditions: CHO-K1 cells stably expressing human SGLT2; for IC50: Na-dependent 14C-AMG uptake; for inhibition at 10 µM: 10 μM compound, read-out: CHOK-SGLT2 % Inh. @ 10 μM
T2 construct: expressed in transfected cells
T2 sequence (P31639 1-672): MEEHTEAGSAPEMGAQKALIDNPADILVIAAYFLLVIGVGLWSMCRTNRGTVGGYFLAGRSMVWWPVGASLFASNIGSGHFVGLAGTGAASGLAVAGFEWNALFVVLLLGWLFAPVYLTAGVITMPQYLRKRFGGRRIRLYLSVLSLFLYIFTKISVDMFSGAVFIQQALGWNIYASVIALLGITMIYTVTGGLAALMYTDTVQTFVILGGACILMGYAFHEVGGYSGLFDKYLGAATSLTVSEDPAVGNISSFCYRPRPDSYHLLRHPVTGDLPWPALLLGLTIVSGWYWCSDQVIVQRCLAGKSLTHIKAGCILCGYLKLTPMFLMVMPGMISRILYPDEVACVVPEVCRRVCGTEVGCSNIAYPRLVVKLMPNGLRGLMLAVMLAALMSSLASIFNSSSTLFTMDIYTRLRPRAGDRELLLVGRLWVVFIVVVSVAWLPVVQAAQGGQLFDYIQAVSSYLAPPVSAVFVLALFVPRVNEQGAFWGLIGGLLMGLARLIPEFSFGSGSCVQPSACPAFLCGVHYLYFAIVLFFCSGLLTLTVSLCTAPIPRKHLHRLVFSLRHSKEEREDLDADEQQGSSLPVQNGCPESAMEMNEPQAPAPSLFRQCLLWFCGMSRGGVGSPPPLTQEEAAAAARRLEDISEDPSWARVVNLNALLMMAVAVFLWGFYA
Experimental: as §1, §2, §3

| Structure (SMILES) | inhibition at 10 µM (human SGLT1) | IC50 (human SGLT2) | IC50 (human SGLT1) | inhibition at 10 µM (human SGLT2) |
| --- | --- | --- | --- | --- |
| CCN(CC)C(=O)n1cc(Cc2ccc(OC)cc2)c2c(O[C@@H]3O[C@H](CO)[C@@H](O)[C@H](O)[C@H]3O)cccc21 [Example 21, 2-[1-Diethylcarbamoyl-3-(4-methoxy-benzyl)-1H-indol-4-yloxy]-β-D-glucopyranoside] | 43% | 1.43 µM | – | – |
| COc1ccc(Cc2cn(C)c3cccc(O[C@@H]4O[C@H](CO)[C@@H](O)[C@H](O)[C@H]4O)c23)cc1 [Example 23, 2-[3-(4-Methoxy-benzyl)-1-methyl-1H-indol-4-yloxy]-β-D-glucopyranoside] | 69% | 1.22 µM | – | – |
| COc1ccc(Cc2c[nH]c3cccc(O[C@@H]4O[C@H](CO)[C@@H](O)[C@H](O)[C@H]4O)c23)cc1F [Example 24, 2-[3-(3-Fluoro-4-methoxy-benzyl)-1H-indol-4-yloxy]-D-glucopyranoside] | 79% | 0.202 µM | – | – |
| OC[C@H]1O[C@@H](Oc2cccc3[nH]cc(Cc4ccc(Cl)cc4)c23)[C@H](O)[C@@H](O)[C@@H]1O [Example 28, 2-[3-(4-Chloro-benzyl)-1H-indol-4-yloxy]-β-D-glucopyranoside] | 58% | 0.346 µM | – | – |
| OC[C@H]1O[C@@H](Oc2cccc3[nH]cc(Cc4ccc5ccccc5c4)c23)[C@H](O)[C@@H](O)[C@@H]1O [Example 29, 2-(3-Naphthalen-2-ylmethyl-1H-indol-4-yloxy)-β-D-glucopyranoside] | 68% | 0.26 µM | – | – |
| OC[C@H]1O[C@@H](Oc2cccc3[nH]cc(Cc4ccc5c(c4)CCO5)c23)[C@H](O)[C@@H](O)[C@@H]1O [Example 30, 2-[3-(2,3-Dihydro-benzofuran-5-ylmethyl)-1H-indol-4-yloxy]-β-D-glucopyranoside] | 30% | 1.87 µM | – | – |
| Cc1ccsc1Cc1c[nH]c2cccc(O[C@@H]3O[C@H](CO)[C@@H](O)[C@H](O)[C@H]3O)c12 [Example 34] | 27% | 5.04 µM | – | – |
| CCc1ccc(Cc2c(C)[nH]c3cccc(O[C@@H]4O[C@H](CO)[C@@H](O)[C@H](O)[C@H]4O)c23)cc1 [Example 36, 2-[3-(4-Ethyl-benzyl)-2-methyl-1H-indol-4-yloxy]-β-D-glucopyranoside] | 16% | – | – | 52% |
| CCc1ccc(C(=O)c2c[nH]c3cccc(O[C@@H]4O[C@H](CO)[C@@H](O)[C@H](O)[C@H]4O)c23)cc1 [Example 38, 2-[3-(4-Ethylbenzoyl)-1H-indol-4-yloxy]-β-D-glucopyranoside] | 7% | – | – | 22% |

More lines, in order of falling IC50 (human SGLT2), values ahead:

| inhibition at 10 µM (human SGLT1) | IC50 (human SGLT2) | IC50 (human SGLT1) | inhibition at 10 µM (human SGLT2) | Structure (SMILES) |
| --- | --- | --- | --- | --- |
| – | 0.133 µM | 1.12 µM | – | OC[C@H]1O[C@@H](Oc2cccc3[nH]cc(Cc4ccc(-c5cccnc5)cc4)c23)[C@H](O)[C@@H](O)[C@@H]1O [Example 35, 2-[3-(4-Pyridin-3-yl-benzyl)-1H-indol-4-yloxy]-β-D-glucopyranoside] |
| – | 0.118 µM | 1.12 µM | – | COc1ccc(Cc2c[nH]c3cccc(O[C@@H]4O[C@H](CO)[C@@H](O)[C@H](O)[C@H]4O)c23)cc1 [Example 22, 2-[3-(4-Methoxy-benzyl)-1H-indol-4-yloxy]-β-D-glucopyranoside] |
| 30% | 0.117 µM | – | – | CCc1ccc(Cc2c[nH]c3cc(C)cc(O[C@@H]4O[C@H](CO)[C@@H](O)[C@H](O)[C@H]4O)c23)cc1 [Example 32, 2-[3-(4-Ethyl-benzyl)-6-methyl-1H-indol-4-yloxy]-β-D-glucopyranoside] |
| 35% | 0.114 µM | – | – | OC[C@H]1O[C@@H](Oc2cccc3[nH]cc(Cc4ccc(-c5ccccc5)c(F)c4)c23)[C@H](O)[C@@H](O)[C@@H]1O [Example 20, 2-[3-(2-Fluoro-biphenyl-4-ylmethyl)-1H-indol-4-yloxy]-β-D-glucopyranoside] |
| 49% | 0.1 µM | – | – | CCOc1ccc(Cc2c[nH]c3cccc(O[C@@H]4O[C@H](CO)[C@@H](O)[C@H](O)[C@H]4O)c23)cc1 [Example 25, 2-[3-(4-Ethoxy-benzyl)-1H-indol-4-yloxy]-β-D-glucopyranoside] |
| – | 0.034 µM | 1.89 µM | – | OC[C@H]1O[C@@H](Oc2cccc3[nH]cc(Cc4ccc(-c5ccsc5)cc4)c23)[C@H](O)[C@@H](O)[C@@H]1O [Example 37, 2-[3-(4-Thiophen-3-yl-benzyl)-1H-indol-4-yloxy]-β-D-glucopyranoside] |
| – | 0.026 µM | 1.31 µM | – | CSc1ccc(Cc2c[nH]c3cccc(O[C@@H]4O[C@H](CO)[C@@H](O)[C@H](O)[C@H]4O)c23)cc1 [Example 27, 2-[3-(4-Methylsulfanyl-benzyl)-1H-indol-4-yloxy]-β-D-glucopyranoside] |
